Where two headings read alike, the source gives them in different places.
What was measured:
Format in all cases: binding
[1] = biological target: T1, HeLa cell extract proteins (Homo sapiens, UniProt Q8WWC4)
T1 construct: endogenous in cells; host or cells: HeLa cell extract
T1 sequence (Q8WWC4 97-291): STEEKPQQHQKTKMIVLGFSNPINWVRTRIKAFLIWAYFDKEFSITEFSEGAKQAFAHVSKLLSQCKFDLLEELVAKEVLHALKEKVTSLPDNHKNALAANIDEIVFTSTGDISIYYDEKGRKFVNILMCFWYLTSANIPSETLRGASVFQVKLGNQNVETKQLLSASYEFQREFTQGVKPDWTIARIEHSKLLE

[2] = biological target: T2, HeLa cell extract proteins (Homo sapiens, UniProt P20073)
T2 construct: endogenous in cells; host or cells: HeLa cell extract
T2 sequence (P20073 1-488): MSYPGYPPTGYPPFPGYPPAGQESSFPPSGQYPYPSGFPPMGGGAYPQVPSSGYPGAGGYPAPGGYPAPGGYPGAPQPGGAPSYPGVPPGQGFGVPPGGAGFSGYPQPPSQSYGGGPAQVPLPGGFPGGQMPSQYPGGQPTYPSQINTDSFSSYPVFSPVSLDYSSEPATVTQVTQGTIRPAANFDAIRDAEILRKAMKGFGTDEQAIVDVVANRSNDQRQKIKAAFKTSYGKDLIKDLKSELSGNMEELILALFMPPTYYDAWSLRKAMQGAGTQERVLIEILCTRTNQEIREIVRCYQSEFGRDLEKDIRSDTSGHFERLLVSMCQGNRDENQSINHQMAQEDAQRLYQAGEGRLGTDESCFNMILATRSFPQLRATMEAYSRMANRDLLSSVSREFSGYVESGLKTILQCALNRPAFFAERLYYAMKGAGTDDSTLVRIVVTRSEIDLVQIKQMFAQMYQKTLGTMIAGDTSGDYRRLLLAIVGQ

[3] = biological target: T3, HeLa cell extract proteins (Homo sapiens, UniProt Q8NBE8)
T3 construct: endogenous in cells; host or cells: HeLa cell extract
T3 sequence (Q8NBE8 1-558): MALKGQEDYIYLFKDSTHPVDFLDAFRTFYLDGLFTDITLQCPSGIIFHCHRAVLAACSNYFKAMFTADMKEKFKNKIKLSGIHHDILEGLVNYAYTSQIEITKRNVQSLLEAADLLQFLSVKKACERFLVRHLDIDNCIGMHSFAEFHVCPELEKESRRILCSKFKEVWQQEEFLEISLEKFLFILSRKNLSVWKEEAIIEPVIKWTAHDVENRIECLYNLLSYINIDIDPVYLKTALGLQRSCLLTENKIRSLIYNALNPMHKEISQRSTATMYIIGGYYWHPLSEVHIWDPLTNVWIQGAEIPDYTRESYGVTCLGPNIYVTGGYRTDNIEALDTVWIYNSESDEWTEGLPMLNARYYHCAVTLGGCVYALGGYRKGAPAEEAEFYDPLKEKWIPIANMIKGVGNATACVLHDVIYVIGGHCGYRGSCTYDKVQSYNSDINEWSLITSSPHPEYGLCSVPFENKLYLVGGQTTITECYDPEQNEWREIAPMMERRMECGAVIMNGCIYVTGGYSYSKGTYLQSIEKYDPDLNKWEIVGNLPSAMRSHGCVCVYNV

[4] = biological target: T4, HeLa cell extract proteins (Homo sapiens, UniProt O95218)
T4 construct: endogenous in cells; host or cells: HeLa cell extract
T4 sequence (O95218 1-330): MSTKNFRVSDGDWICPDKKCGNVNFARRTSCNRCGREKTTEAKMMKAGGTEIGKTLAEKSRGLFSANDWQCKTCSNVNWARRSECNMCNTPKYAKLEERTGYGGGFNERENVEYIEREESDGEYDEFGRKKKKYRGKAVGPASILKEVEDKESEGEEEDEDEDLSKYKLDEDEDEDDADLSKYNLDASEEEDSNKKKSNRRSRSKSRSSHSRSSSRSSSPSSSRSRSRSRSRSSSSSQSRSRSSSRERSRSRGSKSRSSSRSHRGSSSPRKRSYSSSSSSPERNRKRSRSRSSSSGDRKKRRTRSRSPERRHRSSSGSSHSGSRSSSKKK

[5] = biological target: T5, HeLa cell extract proteins (Homo sapiens, UniProt P50990)
T5 construct: endogenous in cells; host or cells: HeLa cell extract
T5 sequence (P50990 1-548): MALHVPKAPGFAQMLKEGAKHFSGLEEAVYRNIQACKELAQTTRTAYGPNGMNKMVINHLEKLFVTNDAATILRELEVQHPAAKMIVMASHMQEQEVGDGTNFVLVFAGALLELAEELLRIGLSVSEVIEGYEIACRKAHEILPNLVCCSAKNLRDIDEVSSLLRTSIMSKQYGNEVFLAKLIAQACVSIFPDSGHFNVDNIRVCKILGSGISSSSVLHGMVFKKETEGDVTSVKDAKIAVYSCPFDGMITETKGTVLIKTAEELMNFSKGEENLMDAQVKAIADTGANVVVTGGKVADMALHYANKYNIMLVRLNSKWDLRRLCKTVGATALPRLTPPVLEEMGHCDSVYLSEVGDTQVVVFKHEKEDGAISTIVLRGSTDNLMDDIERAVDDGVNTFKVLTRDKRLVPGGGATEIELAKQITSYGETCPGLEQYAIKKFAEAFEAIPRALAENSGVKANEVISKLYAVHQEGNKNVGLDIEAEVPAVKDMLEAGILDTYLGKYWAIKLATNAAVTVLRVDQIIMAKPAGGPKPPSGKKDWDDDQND

[6] = biological target: T6, HeLa cell extract proteins (Homo sapiens, UniProt Q9UK99)
T6 construct: endogenous in cells; host or cells: HeLa cell extract
T6 sequence (Q9UK99 1-471): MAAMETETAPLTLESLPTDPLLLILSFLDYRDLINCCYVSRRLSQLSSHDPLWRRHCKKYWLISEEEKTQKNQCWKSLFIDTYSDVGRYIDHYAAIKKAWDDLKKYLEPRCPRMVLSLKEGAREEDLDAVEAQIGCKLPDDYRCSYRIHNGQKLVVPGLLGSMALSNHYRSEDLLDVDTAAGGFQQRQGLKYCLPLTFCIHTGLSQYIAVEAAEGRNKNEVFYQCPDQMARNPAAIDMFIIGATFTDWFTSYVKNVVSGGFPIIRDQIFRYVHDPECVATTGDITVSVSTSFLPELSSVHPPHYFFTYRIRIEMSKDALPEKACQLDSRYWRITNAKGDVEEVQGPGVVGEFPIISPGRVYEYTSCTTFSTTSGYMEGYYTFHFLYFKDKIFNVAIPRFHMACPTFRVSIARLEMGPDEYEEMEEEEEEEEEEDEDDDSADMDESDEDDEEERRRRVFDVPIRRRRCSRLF

[7] = HeLa, protein FBXO3 (ISOFORM 1 OF F-BOX ONLY PROTEIN 3)

Structure (SMILES)	fold changes relative to vehicle control ([1]; protein C2ORF47, HeLa)	fold changes relative to vehicle control ([2]; HeLa, protein ANXA7)	fold changes relative to vehicle control ([3]; HeLa, protein KLHL23)	fold changes relative to vehicle control ([4]; protein ZRANB2, HeLa)	fold changes relative to vehicle control ([5]; HeLa, protein CCT8)	fold changes relative to vehicle control [6, 7]	fold changes relative to vehicle control ([1]; HeLa, protein C2ORF47)	fold changes relative to vehicle control ([2]; protein ANXA7, HeLa)	fold changes relative to vehicle control ([3]; protein KLHL23, HeLa)	fold changes relative to vehicle control ([4]; HeLa, protein ZRANB2)	fold changes relative to vehicle control ([5]; protein CCT8, HeLa)	fold changes relative to vehicle control ([6]; protein FBXO3, HeLa)	other results
Nc1nc2c(c(=O)[nH]1)N(C=O)C(CNc1ccc(C(=O)N[C@@H](CCC(=O)O)C(=O)O)cc1)CN2 (stereo partly drawn) [LEU, leucovorin]	0.93	0.98	0.91	0.82	0.99	1.11							
Nc1nc2[nH]cc(CCc3ccc(C(=O)N[C@@H](CCC(=O)O)C(=O)O)cc3)c2c(=O)[nH]1 [PTX, pemetrexed]													fold changes relative to vehicle control [1]: 0.92; fold changes relative to vehicle control [2]: 1.02; fold changes relative to vehicle control [3]: 0.8; fold changes relative to vehicle control [4]: 0.87; fold changes relative to vehicle control [5]: 1.02; fold changes relative to vehicle control [6]: 1.04
CCCCCCOc1ccc(Cc2cnc(N)nc2N)cc1 [compound 1]							1.1	1.06	0.87	1.04	1.16	0.98	
CCCCCCOc1cccc(Cc2cnc(N)nc2N)c1 [compound 2]							1.06	1.58	0.94	1.23	1.92	1.05	
Nc1nc2cccc(-c3ccccc3)c2n1Cc1ccc(Cl)c(Cl)c1 [compound 3]							1.11	0.91	0.92	0.98	0.96	0.91	
NCCOCCOCC(=O)Nc1nc2ncc(CNc3ccc(C(=O)NC(CCC(=O)O)C(=O)O)cc3)nc2c(=O)[nH]1 (stereo not drawn) [compound 6]	0.99	1.13	0.8	0.95	1.15	1.01							
NCCCNc1ccc(C(=O)NC(CCC(=O)O)C(=O)O)cc1 (stereo not drawn) [compound 7]	1.06	0.83	0.83	0.77	0.92	0.99							

From paper PMC6199744, “Development of Chemical Proteomics for the Folateome and Analysis of the Kinetoplastid Folateome” (ACS Infectious Diseases, 2018)
